Results on seven compounds are retold here after US4954483A, “Carboxylic acid ester derivatives or deglucoteicoplanin” (Gruppo Lepetit, S.p.A., priority 1984, dated 1990).

The subject of one series is E. coli SKF 12140. Kind of series: MIC, standard agar-dilution test. In kind it is cell-based. The conditions noted are these: inoculum about 10^4 CFU/ml. As for the experimental part: (§1) Isosensitest broth (Oxoid) and Todd-Hewitt broth (Difco) are used for growing staphylococci and streptococci, respectively. Broth cultures are diluted so that the final inoculum is about 10^4 colony forming units/ml (CFU/ml).

A further series relates to S. aureus ATCC 6538. Kind of series: MIC, standard agar-dilution test. In kind it is cell-based. The conditions noted are these: inoculum about 10^4 CFU/ml, 18-24 h at 37° C. As for the experimental part: as §1
Series [1] concerns S. epidermidis ATCC 12228. As to the kind of experiment: MIC, standard agar-dilution test. It counts as cell-based. The conditions noted are these: inoculum about 10^4 CFU/ml. The procedure: as §1
Another series concerns S. faecalis ATCC 7080. Kind of series: MIC, standard agar-dilution test. It counts as cell-based. The conditions noted are these: inoculum about 10^4 CFU/ml. The procedure:
as §1

The next series deals with S. pneumoniae UC 41. As to the kind of experiment: MIC, standard agar-dilution test. In kind it is cell-based. The conditions noted are these: inoculum about 10^4 CFU/ml. As for the experimental part:
as §1

Series [2] deals with S. pyogenes C 203 SKF 13400. Kind of series: MIC, standard agar-dilution test. In kind it is cell-based. The conditions noted are these: Todd-Hewitt broth, inoculum about 10^4 CFU/ml. As for the experimental part:
as §1

A further series deals with S. aureus TOUR. Kind of series: MIC, standard agar-dilution test. In kind it is cell-based. The text has this:
Isosensitest broth (Oxoid) and Todd-Hewitt broth (Difco) are used for growing staphylococci and streptococci, respectively. […]

Series [3] in a line: Potentiometric titration in methylcellosolve/water 4:1 (pKa, pH1/2). It counts as physicochemical. The conditions noted are these: methylcellosolve/water 4:1 (v/v), excess 0.01 M HCl, titrated with 0.01 M NaOH. The procedure:
^(c) the samples are dissolved in methylcellosolve ®/water 4:1
(v/v), an excess of 0.01 M hydrogen chloride in the same mixture is added
thereto and the resulting solution is titrated with 0.01 M NaOH in the […]

Series [4] is described as follows: Solubility characteristics.
[5] abbreviates: S. aureus TOUR + 30% bovine serum.

Some results are limits rather than exact numbers.

Broadly, the MIC is the lowest concentration that inhibits growth of the organism. A word on the pKa: it is the negative logarithm of the acid dissociation constant. On to “deglucoteicoplanin n-octyl ester, hydrochloride [Example 2]”, for which the MIC with E. coli SKF 12140 was over 100 µg/mL; in the series on S. aureus ATCC 6538, 0.2 µg/mL; in series [1], 0.1 µg/mL; in the series on S. faecalis ATCC 7080 it was 0.4 µg/mL; against S. pneumoniae UC 41, 0.05 µg/mL; in series [2], 0.05 µg/mL. For the same compound, the MIC in the series with S. aureus TOUR (S. aureus TOUR (10^3 CFU/ml)) came out at 0.2 µg/mL; against S. aureus TOUR (S. aureus TOUR (10^6 CFU/ml)), 0.8 µg/mL; in the series on S. aureus TOUR (setting [5]) it was 0.8 µg/mL. This compound also showed a pKa in series [3] of 6.82.
Turning to “deglucoteicoplanin benzyl ester, hydrochloride [Example 3]”, the MIC with E. coli SKF 12140 turned out to be 12.5 µg/mL; in the series with S. aureus ATCC 6538, 0.4 µg/mL; in series [1] it was 0.1 µg/mL; against S. faecalis ATCC 7080 it was 0.4 µg/mL; with S. pneumoniae UC 41, 0.2 µg/mL; in series [2] it was 0.05 µg/mL. The MIC in the series on S. aureus TOUR (S. aureus TOUR (10^3 CFU/ml)) amounted to 0.4 µg/mL; with S. aureus TOUR (S. aureus TOUR (10^6 CFU/ml)), 0.4 µg/mL; in the series with S. aureus TOUR (setting [5]), 0.8 µg/mL. This compound also came in with a pKa in series [3] of 6.67.
Turning to `N[C@H]1C(=O)N[C@@H]2Cc3ccc(c(Cl)c3)Oc3cc4cc(c3O)Oc3ccc(cc3Cl)[C@@H](O)[C@@H]3NC(=O)[C@H](NC(=O)[C@@H]4NC(=O)[C@@H](NC2=O)c2cc(O)cc(c2)Oc2cc1ccc2O)c1ccc(O)c(c1)-c1c(O)cc(O)cc1[C@@H](C(=O)O)NC3=O` [Antibiotic L 17392, deglucoteicoplanin], in series [4], the “solubility in aqueous methanol, ethanol and acetone” value is “soluble”; the “solubility in ethyl alcohol and dimethylformamide” value is “slightly soluble”. The solubility in water result in [4] (water at a pH higher than 9) was “soluble”.
For the compound “deglucoteicoplanin n-butyl ester, hydrochloride [Example 1]”, the minimum inhibitory concentration (MIC) against E. coli SKF 12140 amounted to 50 µg/mL; against S. aureus ATCC 6538 it was 0.05 µg/mL; in series [1], 0.05 µg/mL; in the series on S. faecalis ATCC 7080, 0.2 µg/mL; against S. pneumoniae UC 41, 0.1 µg/mL; in series [2] it was 0.1 µg/mL. Besides, the MIC amounted to 0.1 µg/mL with S. aureus TOUR (S. aureus TOUR (10^3 CFU/ml)), 0.4 µg/mL against S. aureus TOUR (S. aureus TOUR (10^6 CFU/ml)) and 0.4 µg/mL in the series on S. aureus TOUR (setting [5]). In series [3], this compound displayed a pKa of 6.57.
On to `CC(=O)N[C@@H]1[C@@H](O[C@H]2c3ccc(c(Cl)c3)Oc3cc4cc(c3O)Oc3ccc(cc3Cl)C[C@@H]3NC(=O)[C@@H](N)c5ccc(O)c(c5)Oc5cc(O)cc(c5)[C@@H](NC3=O)C(=O)N[C@@H]4C(=O)N[C@@H]3C(=O)N[C@H]2C(=O)N[C@@H](C(=O)O)c2cc(O)cc(O)c2-c2cc3ccc2O)O[C@@H](CO)[C@H](O)[C@H]1O` (stereo in doubt) [Antibiotic L 17046], for which, in series [4], the “solubility in dimethylformamide, dimethylsulfoxide, propyleneglycol and methylcellosolve” value is recorded as “freely soluble”; the solubility in methanol entry is listed as “slightly soluble”. Also, in series [4] (water at pH>8.0), the solubility in water entry was “freely soluble”.
In the case of “N-benzyloxycarbonyl deglucoteicoplanin [Example 4]”, the pKa in series [3] was 5.02.
“deglucoteicoplanin 4-chloro-butyl ester [Example 9]”: the pKa in series [3] worked out at 6.60.
